Where two headings read alike, the source gives them in different places.
Columns and labels:
mushroom tyrosinase = assay: Mushroom tyrosinase activity, cell-free, L-DOPA substrate; format: biochemical; settings: all concentrations tested
Method: The direct effects of the compounds on tyrosinase enzyme activity were tested using mushroom tyrosinase enzyme with L-DOPA substrate. Briefly, 80 μl of all the 6 test compounds prepared at different concentrations in 50 mM sodium phosphate (pH 6.5) buffer was added to 96 wells followed by 100 μl of freshly prepared substrate solution (3 mM L-DOPA in buffer). The reaction was initiated by adding 20 μl of mushroom tyrosinase enzyme (final concentration of enzyme in wells was 3.5 μg/ml). The production of DOPAchrome was monitored by measuring the kinetics of absorbance increase at 475 nm (for 30 min every 30 seconds) at 30° C. using microplate reader (Versamax®). The slopes of the kinetic readings were calculated to determine and compare tyrosinase activity from control.

[1] = target: T1, cellular tyrosinase in B16F10 cells (Mus musculus, UniProt P11344); assay: Intracellular tyrosinase activity in B16F10 cells; format: cell-based; settings: B16F10 cells exposed for 48 hours; non-linear curve fitting; read-out: IC50-Cellular tyrosinase inhibition
T1 construct: endogenous in cells; host or cells: B16F10
T1 sequence (P11344 19-533): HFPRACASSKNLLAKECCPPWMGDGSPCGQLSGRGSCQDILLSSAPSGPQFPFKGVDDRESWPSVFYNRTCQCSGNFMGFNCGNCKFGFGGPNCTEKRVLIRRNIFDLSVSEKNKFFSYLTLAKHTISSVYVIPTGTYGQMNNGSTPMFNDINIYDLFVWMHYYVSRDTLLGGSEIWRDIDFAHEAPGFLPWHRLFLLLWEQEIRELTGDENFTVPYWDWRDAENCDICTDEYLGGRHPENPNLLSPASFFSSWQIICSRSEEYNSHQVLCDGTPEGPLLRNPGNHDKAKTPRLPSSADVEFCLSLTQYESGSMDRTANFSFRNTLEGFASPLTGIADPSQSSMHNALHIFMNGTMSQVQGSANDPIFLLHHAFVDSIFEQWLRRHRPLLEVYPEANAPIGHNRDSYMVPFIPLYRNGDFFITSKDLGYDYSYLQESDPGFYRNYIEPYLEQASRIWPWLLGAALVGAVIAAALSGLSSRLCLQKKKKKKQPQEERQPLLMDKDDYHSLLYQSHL
Method: We quantitated the cellular tyrosinase activity to delineate mechanism of melanogenesis inhibition by the compounds. Briefly, B16F10 cells were cultured in 24-well tissue culture plates at a density of 4×10^4 cells/well. After 24 hrs, media was changed and test compounds were added, and further incubated for 48 hrs. At the end of treatments, cells were trypsinized and cell pellets were washed in PBS and lysed with lysis buffer (containing 1% NP-40 to solubilize the normally membrane-bound enzyme and protease inhibitors) under ice for 20 minutes and then centrifuged to remove cellular debris. 50 μl of lysates were then aliquoted in 96-well microplate and 150 μl of 3 mM solution of freshly prepared L-DOPA in phosphate buffer, pH 6.8 was added. […] The % inhibition of tyrosinase activity was calculated by determining melanin formation rates from measurements of the linear regions of the slopes of melanin content as a function of time and comparing computed rates of melanin formation in the presence of the test compounds to those of the controls.

DPPH antioxidant assay = settings: cell-free
Description: Melanogenesis is often associated with higher oxidative stress and reactive oxygen species (ROS) generation. […] DPPH is a stable free radical which changes color from purple to yellow upon reduction by antioxidant compounds by electron donation; the color change can be measured spectrophotometrically. […] Briefly, 2,2-Diphenyl-1-picrylhydrazyl (DPPH) was freshly prepared in methanol and mixed with different concentrations of the compounds in triplicates in a 96 well plate. The Negative Control group consisted of DPPH only and Ascorbic Acid (AA) at 100 μg/ml was used as a positive control. The final DPPH concentration was 100 μM and final volume was 200 ul in the plate (20 μl samples with 180 μl of DPPH). The plate was covered and incubated for 30 minutes. Absorbance was read at 517 nm.

MITF = MITF protein levels by cell-based ELISA in B16F10 cells; set-up: species or system mouse; settings: 48 hours
Method: MITF is the master regulator of melanogenesis and a known transcription factor for tyrosinase gene. The effects of PC and CMCs on micropthalmia transcription factor (MITF) proteins levels were assayed using a cell-based ELISA (LifeSpan Biosciences, Seattle). Briefly, B16F10 cells were cultured in a 96-well plate at 1×10^4 cells/well for 24 hours and then media was replaced with fresh media containing compounds in 0.1% DMSO for further 48 hours. The cells were then fixed and subsequent steps were conducted based on manufacturer instructions. The absorbance of MITF expression levels were normalized by absorbance of crystal violet stain (0.05%) and data was reported as % of control.

HaCaT cells [2] = assay: Phagocytosis assay using Fluosphere beads in keratinocytes; format: cell-based, human; settings: beads 24 hours
Description: The final steps of melanognesis in the skin involve transfer of melanin contained within matgure melanosomes from melanocytes to keratinocytes. In order to model melanosome uptake by keratinocytes in the presence of CMCs, we used uptake of fluosphere latex beads (0.5 μm, carboxylate-modified, Molecular Probes, Eugene, Oreg.) by a human keratinocyte cell line (HaCaT) as a model for melanosome uptake study; this model has been previously established [Cardinali G, et al. 2005; Cardinali, G. et al. 2008] to study phagocytosis by keratinocytes. HaCaT cells were cultured in 24 well plates (3.5×10^4 cells/well) for 48 hours and then media was replaced with fresh media containing CMCs (CMC2.14 at 10 μM, CMC2.5 at 20 μM, CMC2.23 at 20 μM and CMC2.24 at 20 μM). Control wells were treated with 0.1% DMSO. After 48 hours exposure, media was removed and wells were washed with PBS and Fluosphere bead solution was suspended in complete medium by sonication for 15 minutes was then diluted in complete medium before addition to the wells ([…]) and further incubation for 24 hours. After the treatment, wells were washed in PBS and extracellular fluorescence was quenched using trypan blue (0.1% in PBS); Fluorescence intensity over the entire bottom surface of each well was measured at excitation/emission of 580/605 using the “well-scan” mode with average of 21 points/well for triplicate wells in a Gemini EM fluorescence plate reader. Controls without any beads were used as blank for background subtraction and results are reported as RFU values expressed as % relative to control.

HaCaT cells [3] = settings: HaCaT, 48 hours
Method: Briefly, 2×10^4 cells/well were seeded in 96-well plates and after 24 hours, the compounds at concentrations of 5-25 μM were added to the wells and incubated for 48 hours. Absorbance was read after 1 hour of incubation of plates and results were expressed as % of control.

[4] = B16F10, 5 μM (printed 5 M for CMC2.23)
[5] = B16F10, 20 μM (printed 20 M for CMC2.5)

Structure (SMILES) | inhibition of mushroom tyrosinase activity (mushroom tyrosinase) | IC50 [1] [µM] | DPPH antioxidant activity (DPPH antioxidant assay) | inhibition of MITF protein levels (MITF; [4]) | inhibition of MITF protein levels (MITF; B16F10, 10 μM) | inhibition of MITF protein levels (MITF; [5]) [%] | inhibition of phagocytosis of Fluosphere beads (HaCaT cells [2]; 20 μM pretreatment 48 hours) [%] | inhibition of MITF protein levels (MITF; B16F10, tested concentrations 5-10 μM) | inhibition of phagocytosis of Fluosphere beads (HaCaT cells [2]; 10 μM pretreatment 48 hours) [%] | stimulation of cell proliferation (HaCaT cells [3]; 5 μM) [%] | stimulation of cell proliferation (HaCaT cells [3]; 10 μM) [%] | inhibition of MITF protein levels (MITF; B16F10, 25 μM) [%] | stimulation of cell proliferation (HaCaT cells [3]; 20 μM) [%]
COC(=O)C(C(=O)C=Cc1ccc(O)c(OC)c1)C(=O)C=Cc1ccc(O)c(OC)c1 (centres unmarked) [CMC2.5, 4-methoxycarbonyl curcumin] | moderate inhibition | 50.7 | significant DPPH radical scavenging activity | did not show any suppression | did not show any suppression | 35 | 38.4 | – | – | – | – | – | –
COC(=O)C(C(=O)/C=C/c1ccc(O)cc1)C(=O)/C=C/c1ccc(O)cc1 [CMC2.14] | moderate inhibition | 4.69 | did not demonstrate potent antioxidant activity | – | – | – | – | did not show any significant reduction | 39.6 | 23.2 | 15.5 | – | –
COc1cc(/C=C/C(=O)C(C(=O)/C=C/c2ccc(O)c(OC)c2)C(=O)Nc2ccccc2)ccc1O [CMC2.23] | moderate inhibition | 13 | significant DPPH radical scavenging activity | 20% | – | 40 | 37.4 | – | – | – | 11.3 | 40 | 22.9
